Results on 3 compounds are retold here after patent publication US6495358B1, “Sulfamide and bis-sulfamide amino acid derivatives as inhibitors of proteolytic enzymes” (Wichita State University, priority 2000, dated 2002).

Assay [1] has as its target T1, Thermolysin (Bacillus thermoproteolyticus, UniProt P00800).
T1 sequence (P00800 233-548): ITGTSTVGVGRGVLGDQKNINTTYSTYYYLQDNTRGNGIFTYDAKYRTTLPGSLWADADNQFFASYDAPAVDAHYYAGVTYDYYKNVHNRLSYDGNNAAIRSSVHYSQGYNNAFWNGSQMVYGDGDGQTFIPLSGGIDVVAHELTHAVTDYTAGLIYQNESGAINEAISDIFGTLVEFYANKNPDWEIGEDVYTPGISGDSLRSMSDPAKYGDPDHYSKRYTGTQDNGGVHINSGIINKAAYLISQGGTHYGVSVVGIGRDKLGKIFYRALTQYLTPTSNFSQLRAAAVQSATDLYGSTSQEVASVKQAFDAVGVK
As to the kind of experiment: Thermolysin inhibition assay with N-[3-[2-Furyl]acryloyl]-Gly-L-Leu-NH2 as substrate. It is filed as biochemical. Conditions: 0.1 M Tris-HCl pH 7.2, 25° C. Here is the method:
Thermolysin activity with or without inhibitor was measured using N-[3-[2-Furyl]acryloyl]-Gly-L-Leu-NH2 as substrate (Walsh, K. A. et al. Methods Enzymol.34:435 (1974; Nishino, N. et al. Biochemistry 17:2846 (1978). The substrate solution in 0.1 M Tris-HCl buffer (pH 7.2) containing 2% DMF was added to thermolysin in 0.1 M Tris-HCl, ph 7.2, containing 10 mM CaCl2 and the decrease in absorbance at 345 nm was monitored using a Hewlett-Packard diode array UV/VIS spectrophotometer at 25° C. Percent inhibition and/or K1 values were determined from Dixon plots (Dixon, M. Biochem, J. 55:70 (1953) at two different substrate concentrations.
The inhibitory activity of compound 20 and 30 toward thermolysin was determined under competitive inhibition conditions. Thermolysin activity with or without inhibitor was measured using N-[3-[2-Furyl]acryloyl]-Gly-L-Leu-NH2 as substrate (Walsh, K. A. et al. Methods Enzymol.34:435 (1974); Nishino, N. et al. Biochemistry 17:2846 (1978)).

Assay [2] deals with T2, human leukocyte elastase (HLE) (Homo sapiens, UniProt P08246).
T2 sequence (P08246 30-247 limits assumed): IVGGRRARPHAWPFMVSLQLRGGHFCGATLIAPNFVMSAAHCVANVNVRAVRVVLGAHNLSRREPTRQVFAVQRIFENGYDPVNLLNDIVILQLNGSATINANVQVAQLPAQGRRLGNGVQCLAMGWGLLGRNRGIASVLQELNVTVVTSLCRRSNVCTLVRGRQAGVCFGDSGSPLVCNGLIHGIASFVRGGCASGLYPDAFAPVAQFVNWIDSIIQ
As to the kind of experiment: Human leukocyte elastase (HLE) inhibition assay, Dixon plot. In kind it is biochemical. The settings on record: competitive inhibition conditions, substrate MeOSuc-AAPV-pNA, 0.1 M HEPES pH 7.25, 25° C., read-out: K1 or % Inhibition (Ki), Elastase (HLE). The text has this:
Screening of compounds for protease activity is known in the art. The human leukocyte elastase (HLE), cathepsin G (Cat G) and proteinase 3 (PR3) assays have each been described in detail; see, Groutas et al. Biochemistry 36:4739 (1997). Chymase assay has also been previously reported; see, Schechter, et al., J. Biol. Chem. 268:23626 (1993).
The substrates and buffers used in the assay inhibition studies with human leukocyte elastase (HLE), cathepsin G (Cat G), proteinase 3 (PR3) (Groutas, W. C., et al., Biochemistry 36:4739 (1997) and chymase (Groutas, W. C. et al., Bioorg. Med. Chem. Lett. 9:2199 (1999) were as follows: HLE, MeOSuc-AAPV-pNA, 0.1 M HEPES buffer, pH, 7.25 in 1-5% DMSO; Cat G, Suc-AAPF-pNA, 0.1 M HEPES buffer, pH 7.5; PR3, Boc-L-Ala p-mitrophenyl ester, 0.1 M phosphate buffer, pH 6.5; chymase, Suc-AAPF-pNA, 0.45 Tris buffer, 1.8 M Na Cl, pH 8.03 and 2% DMSO. All assays were carried out at 25° C. and for all enzymes the absorbance was monitored at 410 nm, except PR 3 (348 nm).
The inhibitory activity of compound 15 toward HLE was determined under competitive inhibition conditions. (Dixon, M. Biochem. J. 20 55:70-71 (1953)). Human leukocyte elastase (HLE assay has been described in detail; see, Groutas et al. Biochemistry 36:4739 (1997).

What is called Ki is a measure of affinity in units of concentration, obtained from inhibition or displacement. On to `CN(C)S(=O)(=O)N(CC(=O)NO)Cc1ccccc1` [Compound 20, N^2-benzyl-N^2-[(dimethylamino)sulfonyl]-N^1-hydroxyglycinabmide], for which, in assay [1] (competitive inhibition conditions, Dixon plots at two substrate concentrations, read-out: K1 or % Inhibition (Ki), Thermolysin), the Ki was determined as 1.2 µM.

Take `CC(C)C[C@@H](C(=O)NO)N(Cc1ccccc1)S(N)(=O)=O` [Compound 40]: the “K1 or % Inhibition (% inhibition), Thermolysin” value in assay [1] (inhibitor concentration not given) came to 26% inhibition.

Regarding `CC(C)CC(C=O)N(Cc1ccccc1)S(=O)(=O)N(C)C` (stereo not drawn) [Compound 15, N-benzyl-N-(1-formyl-3-methylbutyl)-N′,N′-dimethylfulfamide], the Ki in assay [2] stood at 21 µM.
